Measurements reported in the NIST ThermoML archive (doi:10.1016/j.jct.2007.05.011).

Assay: xn = mol fraction of the nth substance listed
Conditions: 101 kPa, Liquid; for mass density: Vibrating tube method

NCCO.O=CO [2-hydroxyethylammonium formate] + CCO
Conditions	mass density, 315.65 K [kg/m3]	mass density, 318.15 K [kg/m3]	mass density, 320.65 K [kg/m3]	mass density, 323.15 K [kg/m3]	speed of sound, 315.65 K [m/s]	speed of sound, 318.15 K [m/s]	speed of sound, 320.65 K [m/s]	speed of sound, 323.15 K [m/s]
x2 = 0	–	1162.29	1160.51	1158.73	1666.7	1660.8	1654.8	1648.9
x2 = 0.058	–	1153.16	1151.51	1149.88	1684.1	1679	1673.9	1668.8
x2 = 0.098	–	1141.07	1139.41	1137.78	1664.5	1659.2	1654	1648.8
x2 = 0.193	–	1115.42	1113.73	1112.06	1620.9	1615.5	1610.1	1604.7
x2 = 0.296	–	1089.4	1087.69	1085.98	1576	1570.4	1564.8	1559.4
x2 = 0.399	–	1058.44	1056.68	1054.93	1521.5	1515.6	1509.9	1504.2
x2 = 0.5	1024.77	1022.96	1021.15	1019.35	1460.5	1454.4	1448.2	1442.1
x2 = 0.598	986.208	984.346	982.484	980.632	1395.6	1389.2	1382.8	1376.5
x2 = 0.701	942.365	940.437	938.509	936.584	1325.5	1318.7	1311.8	1305.1
x2 = 0.799	892.716	890.71	888.697	886.69	1252	1244.8	1237.6	1230.5
x2 = 0.9	836.524	834.423	832.314	830.212	1174.9	1167.2	1159.5	1152
x2 = 0.95	805.362	803.205	801.039	798.879	1133.4	1125.4	1117.5	1109.7
